In one series the test system is pERK1/2. On the set-up: method as in PMID 32910655. As to conditions: cited from earlier work.
Series [1] addresses T1, SHP2 (Homo sapiens, UniProt Q06124).
T1 sequence (Q06124 1-593): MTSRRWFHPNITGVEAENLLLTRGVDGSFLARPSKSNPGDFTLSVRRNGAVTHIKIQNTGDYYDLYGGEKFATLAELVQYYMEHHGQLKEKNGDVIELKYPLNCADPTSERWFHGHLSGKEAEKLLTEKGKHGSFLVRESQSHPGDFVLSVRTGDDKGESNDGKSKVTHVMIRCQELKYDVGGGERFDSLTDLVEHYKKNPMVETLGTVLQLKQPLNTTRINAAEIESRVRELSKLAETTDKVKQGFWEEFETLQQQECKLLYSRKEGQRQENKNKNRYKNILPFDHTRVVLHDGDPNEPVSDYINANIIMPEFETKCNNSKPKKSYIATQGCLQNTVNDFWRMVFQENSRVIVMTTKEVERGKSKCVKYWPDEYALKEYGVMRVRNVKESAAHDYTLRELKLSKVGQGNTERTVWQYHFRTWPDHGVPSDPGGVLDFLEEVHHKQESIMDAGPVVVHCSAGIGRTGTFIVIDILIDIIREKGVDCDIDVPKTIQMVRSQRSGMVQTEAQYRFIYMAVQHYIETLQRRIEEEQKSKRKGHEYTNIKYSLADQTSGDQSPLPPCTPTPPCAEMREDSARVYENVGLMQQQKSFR
Kind of series: SHP2 degradation by Western blotting in HEK293 cells. Type of series: cell-based. Set-up: endogenous in cells; host or cells: HEK293. Conditions: HEK293, 16 h, 250 nM P9 in combination with 1 µM 3, 10 µM MG132, 1 µM MLN4924, 40 µM VHL-2 or 40 µM Lenalidomide. Here is the method:
HEK293, SKBR3, U2OS, MCF7 and A549 cells were grown in DMEM supplemented with 10% FBS, penicillin (50 units/mL), and streptomycin (50 μg/mL) in a 37 °C incubator containing 5% CO2. […] For western-blot analysis, protein samples were separated by SDS-PAGE, transferred to nitrocellulose membranes, and incubated overnight at 4 °C with corresponding primary antibodies diluted in 5% BSA in phosphate-buffered saline Tween (PBST). SuperSignal™ West Pico PLUS (PI34580; Thermo Scientific) was used to visualize the antibodies in the bioanalytical imaging system (Azure Biosystems c500). […] Anti-PTP1B (ab244207) antibody was purchased from Abcam. For colony formation assay, a total of approximately 200–500 cells were seeded to each well in a 12-well plate.
Supplemental Figures, Schemes, and Tables:
Figure S1. Western blots of degradation assay for PROTAC screening. (A) Degradation assay of
compo un ds i n Table 1 at 1 μM fo r 16 hours in H EK29 3 cells. (B) Degradation assay of compounds in Table
1 at 10 μM for 16 hours in HEK293 cells. (C) Degradation assay of compounds in Table 2 at 1 μM for 16

The target of series [2] is T1, SHP2. Set-up: endogenous in cells; host or cells: KYSE-520. Conditions: cited from earlier work.
Series [3] can be described thus: Decomposition of CRBN-based PROTACs in DMEM media or water (LCMS). It is filed as physicochemical. Conditions: 10 μM, within 3 h, DMEM cell media or water, room temperature. The text has this:
With the desired SHP2 ligand in hand, we synthesized an initial set of PROTAC molecules using pomalidomide or lenalidomide as a ligand of the E3 ligase Cereblon (CRBN), which is one of the most productive E3 in the development of PROTACs. […] This observation is consistent with the fact that phthalimides can be smoothly hydrolyzed in the presence of water and an organic base, as these PROTAC compounds contain a basic aliphatic amino group. Given that this free amino group in the allosteric inhibitors is essential for the binding affinity to SHP2 [28], we reasoned that pomalidomide or lenalidomide-based CRBN ligands are not suitable for the development of in vivo efficacious SHP2 degraders in this study due to stability considerations.
Scheme S1. Decomposition of CRBN-based PROTACs in the presence of water. 10 μM compound 11 or
12 was incubated in DMEM media or water for 3 hours. The fina l co ncentrations of the compounds at
the endpoint were quantified by LCMS.
Table S1. Enzymatic IC50s of first generation SHP2 PROTACs against full length SHP2
Compound ID Linker Structure Linker Length (atom) SHP2 IC50 (n M) […]

Molecules are shown by their SMILES.

As for `CC1(CN)CCN(c2cnc(Sc3cccc(Cl)c3Cl)c(N)n2)CC1` [compound 3, reference compound], the IC50 – broadly, the concentration at which inhibition is half-maximal – in the series with pERK1/2 is 88 nM. Moreover, the “effect on P9-induced SHP2 degradation” value on SHP2 [1] is “prohibited P9-induced SHP2 degradation”.

With `CCCCC1(CN)CCN(c2cnc(Sc3ccnc(N)c3Cl)c(N)n2)CC1` [compound 2], the IC50 on SHP2 [2] was 17 nM.

On to `NCC1(CCCCCC(=O)NCCCCCC(=O)Nc2cccc3c2C(=O)N(C2CCC(=O)NC2=O)C3=O)CCN(c2cnc(Sc3cccc(Cl)c3Cl)c(N)n2)CC1` (stereo not shown) [compound 11, 6-(1-(6-amino-5-((2,3-dichlorophenyl)thio)pyrazin-2-yl)-4-(aminomethyl)piperidin-4-yl)-N-(6-((2-(2,6-dioxopiperidin-3-yl)-1,3-dioxoisoindolin-4-yl)amino)-6-oxohexyl)hexanamide], for which, in series [3], the “compound converted into ring-opened products 13” value is listed as “over 90%”.
